Laboratory results published in the kinase profiling compilation of Christmann-Franck et al. (2016).
Values belong to the compound of their own block, whether it stands above or below them.

Assays:
ALK (human) = ALK (human) (UniProt Q9UM73); test: KINOMEscan competition binding; settings: compound 10.0 µM
DAPK1 (human) = DAPK1 (human) (UniProt P53355); test: KINOMEscan competition binding; settings: compound 10.0 µM
DAPK2 (human) = DAPK2 (human) (UniProt Q9UIK4); test: KINOMEscan competition binding; settings: compound 10.0 µM
DAPK3 (human) = DAPK3 (human) (UniProt O43293); test: KINOMEscan competition binding; settings: compound 10.0 µM
DCLK1 (human) = DCLK1 (human) (UniProt O15075); test: KINOMEscan competition binding; settings: compound 10.0 µM
DCLK2 (human) = DCLK2 (human) (UniProt Q8N568); test: KINOMEscan competition binding; settings: compound 10.0 µM
GAK (human) = GAK (human) (UniProt O14976); test: KINOMEscan competition binding; settings: compound 10.0 µM
INSR (human) = INSR (human) (UniProt P06213); test: KINOMEscan competition binding; settings: compound 10.0 µM
INSRR (human) = INSRR (human) (UniProt P14616); test: KINOMEscan competition binding; settings: compound 10.0 µM
MYLK (human) = MYLK (human) (UniProt Q15746); test: KINOMEscan competition binding; settings: compound 10.0 µM
PLK1 (human) = PLK1 (human) (UniProt P53350); test: KINOMEscan competition binding; settings: compound 10.0 µM
PLK3 (human) = PLK3 (human) (UniProt Q9H4B4); test: KINOMEscan competition binding; settings: compound 10.0 µM
PLK4 (human) = PLK4 (human) (UniProt O00444); test: KINOMEscan competition binding; settings: compound 10.0 µM
PTK2 (human) = PTK2 (human) (UniProt Q05397); test: KINOMEscan competition binding; settings: compound 10.0 µM
PTK2B (human) = PTK2B (human) (UniProt Q14289); test: KINOMEscan competition binding; settings: compound 10.0 µM
RPS6KA1 KD2 (human) = RPS6KA1 KD2 (human) (UniProt Q15418); test: KINOMEscan competition binding; settings: compound 10.0 µM
RPS6KA2 KD2 (human) = RPS6KA2 KD2 (human) (UniProt Q15349); test: KINOMEscan competition binding; settings: compound 10.0 µM
RPS6KA6 KD2 (human) = RPS6KA6 KD2 (human) (UniProt Q9UK32); test: KINOMEscan competition binding; settings: compound 10.0 µM
SLK (human) = SLK (human) (UniProt Q9H2G2); test: KINOMEscan competition binding; settings: compound 10.0 µM
STK33 (human) = STK33 (human) (UniProt Q9BYT3); test: KINOMEscan competition binding; settings: compound 10.0 µM
TTK (human) = TTK (human) (UniProt P33981); test: KINOMEscan competition binding; settings: compound 10.0 µM
BTK (human) = BTK (human) (UniProt Q06187); test: KINOMEscan competition binding; settings: compound 10.0 µM
CDK16 (human) = CDK16 (human) (UniProt Q00536); test: KINOMEscan competition binding; settings: compound 10.0 µM
CDK7 (human) = CDK7 (human) (UniProt P50613); test: KINOMEscan competition binding; settings: compound 10.0 µM
CSNK2A1 (human) = CSNK2A1 (human) (UniProt P68400); test: KINOMEscan competition binding; settings: compound 10.0 µM
CSNK2A2 (human) = CSNK2A2 (human) (UniProt P19784); test: KINOMEscan competition binding; settings: compound 10.0 µM
HIPK1 (human) = HIPK1 (human) (UniProt Q86Z02); test: KINOMEscan competition binding; settings: compound 10.0 µM
LATS2 (human) = LATS2 (human) (UniProt Q9NRM7); test: KINOMEscan competition binding; settings: compound 10.0 µM
MAP2K3 (human) = MAP2K3 (human) (UniProt P46734); test: KINOMEscan competition binding; settings: compound 10.0 µM
MAP4K4 (human) = MAP4K4 (human) (UniProt O95819); test: KINOMEscan competition binding; settings: compound 10.0 µM
MINK1 (human) = MINK1 (human) (UniProt Q8N4C8); test: KINOMEscan competition binding; settings: compound 10.0 µM
PIK3CA (human) = PIK3CA (human) (UniProt P42336); test: KINOMEscan competition binding; settings: compound 10.0 µM
[1] = tested on: PIK3CA (human), P42336 [E545K]; test: KINOMEscan competition binding; settings: compound 10.0 µM
PIK3CB (human) = PIK3CB (human) (UniProt P42338); test: KINOMEscan competition binding; settings: compound 10.0 µM
PIK3CD (human) = PIK3CD (human) (UniProt O00329); test: KINOMEscan competition binding; settings: compound 10.0 µM
PIK3CG (human) = PIK3CG (human) (UniProt P48736); test: KINOMEscan competition binding; settings: compound 10.0 µM
PIM1 (human) [2] = biological target: PIM1 (human) (UniProt P11309); test: KINOMEscan competition binding; settings: compound 10.0 µM
PIM2 (human) [3] = biological target: PIM2 (human) (UniProt Q9P1W9); test: KINOMEscan competition binding; settings: compound 10.0 µM
PIM3 (human) = PIM3 (human) (UniProt Q86V86); test: KINOMEscan competition binding; settings: compound 10.0 µM
RPS6KA4 KD2 (human) = RPS6KA4 KD2 (human) (UniProt O75676); test: KINOMEscan competition binding; settings: compound 10.0 µM
STK17B (human) = STK17B (human) (UniProt O94768); test: KINOMEscan competition binding; settings: compound 10.0 µM
TAOK1 (human) = TAOK1 (human) (UniProt Q7L7X3); test: KINOMEscan competition binding; settings: compound 10.0 µM
PIM1 (human) [4] = biological target: PIM1 (human) (UniProt P11309); test: SelectScreen, TR FRET
PIM2 (human) [5] = biological target: PIM2 (human) (UniProt Q9P1W9); test: SelectScreen, TR FRET

PLK4 (human), sequence (O00444 whole entry, looked up): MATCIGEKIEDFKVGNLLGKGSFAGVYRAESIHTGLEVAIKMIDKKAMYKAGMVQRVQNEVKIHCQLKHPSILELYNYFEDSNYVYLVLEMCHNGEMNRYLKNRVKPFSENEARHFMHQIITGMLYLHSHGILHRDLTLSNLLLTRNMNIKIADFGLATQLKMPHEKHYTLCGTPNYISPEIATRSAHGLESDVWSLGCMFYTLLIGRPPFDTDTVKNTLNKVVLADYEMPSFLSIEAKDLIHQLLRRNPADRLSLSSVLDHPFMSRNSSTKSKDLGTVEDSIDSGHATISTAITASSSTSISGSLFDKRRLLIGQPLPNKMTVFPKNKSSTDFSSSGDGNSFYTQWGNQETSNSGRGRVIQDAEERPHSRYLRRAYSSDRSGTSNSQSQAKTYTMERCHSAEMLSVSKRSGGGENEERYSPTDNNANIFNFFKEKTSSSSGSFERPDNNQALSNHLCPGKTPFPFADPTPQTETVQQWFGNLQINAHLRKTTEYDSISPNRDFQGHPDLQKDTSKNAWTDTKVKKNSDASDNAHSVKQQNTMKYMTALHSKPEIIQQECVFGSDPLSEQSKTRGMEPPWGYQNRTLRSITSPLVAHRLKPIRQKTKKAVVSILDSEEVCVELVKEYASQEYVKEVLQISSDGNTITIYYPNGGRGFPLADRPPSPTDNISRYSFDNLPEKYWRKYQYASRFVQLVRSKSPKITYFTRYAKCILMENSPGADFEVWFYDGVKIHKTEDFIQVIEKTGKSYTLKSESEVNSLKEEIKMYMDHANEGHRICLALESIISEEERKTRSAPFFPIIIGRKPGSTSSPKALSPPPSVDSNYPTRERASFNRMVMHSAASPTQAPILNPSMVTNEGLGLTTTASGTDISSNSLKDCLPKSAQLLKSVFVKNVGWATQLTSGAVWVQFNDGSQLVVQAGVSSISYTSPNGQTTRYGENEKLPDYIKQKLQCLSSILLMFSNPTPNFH
PIM2 (human), sequence (Q9P1W9 whole entry, looked up): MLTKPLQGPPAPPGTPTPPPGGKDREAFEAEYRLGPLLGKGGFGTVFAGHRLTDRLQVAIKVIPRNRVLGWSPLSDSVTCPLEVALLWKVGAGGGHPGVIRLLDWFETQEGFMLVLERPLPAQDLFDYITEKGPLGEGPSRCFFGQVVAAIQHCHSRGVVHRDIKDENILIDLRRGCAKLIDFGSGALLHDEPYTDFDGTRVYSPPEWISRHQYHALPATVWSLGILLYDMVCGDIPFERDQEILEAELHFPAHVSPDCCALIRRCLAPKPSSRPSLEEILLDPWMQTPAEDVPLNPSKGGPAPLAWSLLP
DAPK3 (human), sequence (O43293 whole entry, looked up): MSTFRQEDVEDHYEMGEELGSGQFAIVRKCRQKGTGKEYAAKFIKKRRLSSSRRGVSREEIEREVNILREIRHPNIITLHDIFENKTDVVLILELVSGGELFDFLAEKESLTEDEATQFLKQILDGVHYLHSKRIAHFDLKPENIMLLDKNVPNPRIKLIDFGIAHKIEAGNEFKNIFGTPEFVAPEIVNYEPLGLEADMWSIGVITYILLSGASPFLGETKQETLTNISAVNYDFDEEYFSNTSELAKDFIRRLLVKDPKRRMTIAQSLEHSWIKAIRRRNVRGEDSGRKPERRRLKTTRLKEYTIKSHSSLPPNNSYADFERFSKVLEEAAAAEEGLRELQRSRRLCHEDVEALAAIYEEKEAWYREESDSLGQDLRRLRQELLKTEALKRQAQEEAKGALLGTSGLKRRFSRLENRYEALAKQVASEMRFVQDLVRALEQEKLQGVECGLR
DAPK1 (human), sequence (P53355 whole entry, looked up): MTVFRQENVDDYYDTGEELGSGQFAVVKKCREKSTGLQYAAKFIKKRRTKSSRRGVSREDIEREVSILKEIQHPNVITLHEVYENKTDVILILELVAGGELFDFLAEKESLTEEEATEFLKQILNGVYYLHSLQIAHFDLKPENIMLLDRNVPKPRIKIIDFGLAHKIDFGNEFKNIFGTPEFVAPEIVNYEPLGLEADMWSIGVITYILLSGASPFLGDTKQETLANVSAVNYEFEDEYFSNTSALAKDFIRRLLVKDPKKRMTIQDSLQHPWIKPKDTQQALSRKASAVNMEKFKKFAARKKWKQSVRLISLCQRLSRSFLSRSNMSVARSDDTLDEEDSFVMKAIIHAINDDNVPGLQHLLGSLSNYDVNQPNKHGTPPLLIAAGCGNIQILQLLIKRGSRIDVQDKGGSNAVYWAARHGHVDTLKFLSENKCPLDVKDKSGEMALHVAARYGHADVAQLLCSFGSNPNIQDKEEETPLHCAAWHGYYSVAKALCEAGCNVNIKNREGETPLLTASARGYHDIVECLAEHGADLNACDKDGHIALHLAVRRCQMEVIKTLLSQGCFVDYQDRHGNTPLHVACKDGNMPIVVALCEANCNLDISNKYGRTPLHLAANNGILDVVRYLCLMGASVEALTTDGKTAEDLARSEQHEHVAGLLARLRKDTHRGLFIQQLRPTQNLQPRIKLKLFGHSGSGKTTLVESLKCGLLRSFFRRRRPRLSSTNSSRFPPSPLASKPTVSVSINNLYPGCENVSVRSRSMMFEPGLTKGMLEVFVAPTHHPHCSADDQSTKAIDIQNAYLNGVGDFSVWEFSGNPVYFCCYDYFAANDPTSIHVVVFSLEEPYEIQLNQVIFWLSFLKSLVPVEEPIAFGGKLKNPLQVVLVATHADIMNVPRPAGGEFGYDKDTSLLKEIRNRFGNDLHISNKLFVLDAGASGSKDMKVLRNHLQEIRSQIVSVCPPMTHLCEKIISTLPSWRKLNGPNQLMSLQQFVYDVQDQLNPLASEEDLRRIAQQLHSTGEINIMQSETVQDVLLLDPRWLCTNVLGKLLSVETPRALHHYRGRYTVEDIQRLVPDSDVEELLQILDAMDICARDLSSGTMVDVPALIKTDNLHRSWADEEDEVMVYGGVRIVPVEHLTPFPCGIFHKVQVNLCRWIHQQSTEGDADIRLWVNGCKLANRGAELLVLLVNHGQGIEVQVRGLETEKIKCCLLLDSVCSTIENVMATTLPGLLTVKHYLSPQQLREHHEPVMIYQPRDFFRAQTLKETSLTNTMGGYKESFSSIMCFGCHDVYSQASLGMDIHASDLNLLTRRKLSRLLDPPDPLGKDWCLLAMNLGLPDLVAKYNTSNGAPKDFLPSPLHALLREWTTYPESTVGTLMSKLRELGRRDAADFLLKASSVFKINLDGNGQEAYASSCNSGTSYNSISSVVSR
PIM1 (human), sequence (P11309 whole entry, looked up): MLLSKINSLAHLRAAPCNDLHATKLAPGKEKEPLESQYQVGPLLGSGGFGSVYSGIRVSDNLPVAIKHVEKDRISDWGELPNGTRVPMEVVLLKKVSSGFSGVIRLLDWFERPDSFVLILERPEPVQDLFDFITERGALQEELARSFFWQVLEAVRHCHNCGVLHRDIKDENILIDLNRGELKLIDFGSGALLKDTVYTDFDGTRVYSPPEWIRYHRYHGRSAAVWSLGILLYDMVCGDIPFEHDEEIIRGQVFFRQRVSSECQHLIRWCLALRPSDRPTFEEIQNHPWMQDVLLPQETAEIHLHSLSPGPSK
DAPK2 (human), sequence (Q9UIK4 whole entry, looked up): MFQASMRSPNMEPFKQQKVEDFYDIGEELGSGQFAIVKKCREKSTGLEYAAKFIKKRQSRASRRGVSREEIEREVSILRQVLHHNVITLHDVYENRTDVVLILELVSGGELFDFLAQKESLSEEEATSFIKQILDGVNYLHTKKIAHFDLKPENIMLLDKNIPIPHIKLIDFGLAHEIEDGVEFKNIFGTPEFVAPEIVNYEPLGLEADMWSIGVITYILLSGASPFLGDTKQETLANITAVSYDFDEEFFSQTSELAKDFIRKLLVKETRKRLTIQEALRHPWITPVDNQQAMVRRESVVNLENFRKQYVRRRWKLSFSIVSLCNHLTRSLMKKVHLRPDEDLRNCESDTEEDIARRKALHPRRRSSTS
TAOK1 (human), sequence (Q7L7X3 whole entry, looked up): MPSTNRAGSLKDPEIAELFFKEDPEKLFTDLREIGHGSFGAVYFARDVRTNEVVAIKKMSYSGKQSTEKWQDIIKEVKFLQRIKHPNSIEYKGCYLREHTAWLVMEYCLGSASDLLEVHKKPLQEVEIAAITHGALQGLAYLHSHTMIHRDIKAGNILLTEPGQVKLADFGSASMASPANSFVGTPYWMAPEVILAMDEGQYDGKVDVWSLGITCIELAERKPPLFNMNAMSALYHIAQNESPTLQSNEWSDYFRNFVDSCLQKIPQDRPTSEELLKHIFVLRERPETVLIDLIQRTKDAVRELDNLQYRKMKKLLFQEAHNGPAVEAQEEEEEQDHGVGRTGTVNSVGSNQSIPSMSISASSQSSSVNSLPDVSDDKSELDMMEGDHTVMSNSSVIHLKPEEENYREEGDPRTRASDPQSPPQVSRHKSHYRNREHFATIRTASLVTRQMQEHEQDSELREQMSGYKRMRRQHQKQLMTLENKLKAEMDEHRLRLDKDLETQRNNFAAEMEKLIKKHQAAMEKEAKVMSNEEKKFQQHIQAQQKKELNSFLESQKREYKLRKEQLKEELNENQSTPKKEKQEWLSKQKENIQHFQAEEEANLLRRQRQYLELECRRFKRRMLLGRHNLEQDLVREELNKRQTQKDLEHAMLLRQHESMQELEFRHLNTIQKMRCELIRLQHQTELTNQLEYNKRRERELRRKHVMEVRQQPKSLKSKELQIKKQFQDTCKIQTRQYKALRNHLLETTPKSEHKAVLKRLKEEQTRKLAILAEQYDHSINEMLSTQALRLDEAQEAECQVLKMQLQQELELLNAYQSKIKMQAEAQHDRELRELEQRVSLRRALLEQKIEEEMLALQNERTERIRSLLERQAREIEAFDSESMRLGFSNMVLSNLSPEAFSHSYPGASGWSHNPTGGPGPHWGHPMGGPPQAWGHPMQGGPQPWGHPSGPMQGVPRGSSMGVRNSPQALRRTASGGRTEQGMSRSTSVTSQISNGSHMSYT

kinase still bound, per cent of control (ALK (human)): 14% | kinase still bound, per cent of control (DAPK1 (human)): 8.2% | kinase still bound, per cent of control (DAPK2 (human)): 24% | kinase still bound, per cent of control (DAPK3 (human)): 9.9% | kinase still bound, per cent of control (DCLK1 (human)): 11% | kinase still bound, per cent of control (DCLK2 (human)): 31% | kinase still bound, per cent of control (GAK (human)): 2.7% | kinase still bound, per cent of control (INSR (human)): 30% | kinase still bound, per cent of control (INSRR (human)): 23% | kinase still bound, per cent of control (MYLK (human)): 3% | kinase still bound, per cent of control (PLK1 (human)): 2% | kinase still bound, per cent of control (PLK3 (human)): 4.1% | kinase still bound, per cent of control (PLK4 (human)): 8% | kinase still bound, per cent of control (PTK2 (human)): 7.1% | kinase still bound, per cent of control (PTK2B (human)): 12% | kinase still bound, per cent of control (RPS6KA1 KD2 (human)): 15% | kinase still bound, per cent of control (RPS6KA2 KD2 (human)): 9.6% | kinase still bound, per cent of control (RPS6KA6 KD2 (human)): 22% | kinase still bound, per cent of control (SLK (human)): 20% | kinase still bound, per cent of control (STK33 (human)): 5.6% | kinase still bound, per cent of control (TTK (human)): 0.85%
SMILES: COc1cc(C(=O)NC2CCN(C)CC2)ccc1Nc1ncc2c(n1)N(C1CCC(O)CC1)CCC(=O)N2C (stereo not drawn)

kinase still bound, per cent of control (BTK (human)): 17% | kinase still bound, per cent of control (CDK16 (human)): 9.3% | kinase still bound, per cent of control (CDK7 (human)): 29% | kinase still bound, per cent of control (CSNK2A1 (human)): 15% | kinase still bound, per cent of control (CSNK2A2 (human)): 21% | kinase still bound, per cent of control (DAPK1 (human)): 2.3% | kinase still bound, per cent of control (DAPK2 (human)): 3.4% | kinase still bound, per cent of control (DAPK3 (human)): 8% | kinase still bound, per cent of control (HIPK1 (human)): 3.4% | kinase still bound, per cent of control (LATS2 (human)): 21% | kinase still bound, per cent of control (MAP2K3 (human)): 33% | kinase still bound, per cent of control (MAP4K4 (human)): 18% | kinase still bound, per cent of control (MINK1 (human)): 32% | kinase still bound, per cent of control (PIK3CA (human)): 12% | kinase still bound, per cent of control [1]: 17% | kinase still bound, per cent of control (PIK3CB (human)): 31% | kinase still bound, per cent of control (PIK3CD (human)): 30% | kinase still bound, per cent of control (PIK3CG (human)): 10% | kinase still bound, per cent of control (PIM1 (human) [2]): 2.4% | kinase still bound, per cent of control (PIM2 (human) [3]): 3.3% | kinase still bound, per cent of control (PIM3 (human)): 2.8% | kinase still bound, per cent of control (PLK4 (human)): 4.7% | kinase still bound, per cent of control (RPS6KA4 KD2 (human)): 18% | kinase still bound, per cent of control (STK17B (human)): 5.2% | kinase still bound, per cent of control (TAOK1 (human)): 12% | IC50 (PIM1 (human) [4]): 293 nM | IC50 (PIM2 (human) [5]): 165 nM
SMILES: CS(=O)C1=NC(=O)/C(=C/c2ccc(-c3ccc(S(N)(=O)=O)cc3)o2)S1 (stereo not drawn)
